Test results from US9694061B2, “Fully human antibodies to high molecular weight-melanoma associated antigen and uses thereof” (University of Pittsburgh—Of the Commonwealth System of …, priority 2008, dated 2017).

Key:
scFv C21 [1] = experiment: Inhibition by synthetic peptides of scFv C21 binding to Colo38 cells; design: species or system human; conditions: for Inhibition of the binding of scFv C21 to HMW-MAA+ melanoma cells Colo38: soluble peptide, FIG. 8
Description: FIG. 8. Inhibition of the reactivity of scFv C21 with HMW-MAA^+ cells Colo38 by synthetic peptides P1C21 and P3C21 and by modified peptide P3C21. Varying concentrations of synthetic peptides P1C21 (-●-), P3C21(-▴-), P3A5 (-⋄-), P3V7 ( ? ) and P3S10 ( ? ) were incubated for 2 h at 4° C. with 50 μl of PP scFv (1:1600 dilution in 1% BSA-PBS) and 50 μl of biotinylated mAb 9E10 (2.5 μg/ml 1% BSA-PBS). The mixture was then transferred to wells containing cells Colo38. Binding of scFvC21 was detected using SA-HRP (top panel). Results are expressed as % inhibition. The unrelated peptide MART-1 (-∇-) and the scFv #28 (bottom panel) which recognizes an unrelated HMW-MAA determinant were used as specificity controls.
The ELISA to test the reactivity of soluble scFv antibodies with synthetic peptides and melanoma cells and of mouse immune sera with melanoma cells and with peptides was performed as described (Desai et al., Cancer Res 58:2417-2425, 1998; Desai et al., J Immunol 165:3275-3283, 2000; Matsui et al., J Immunol 139:2088-2095, 1987). Results are expressed as absorbance of optical density (O.D.) at 450 nm. The competition assay to map the antigenic determinant recognized by scFv C21 was performed by mixing biotinylated scFv C21 (0.25 μg/well) with two-fold dilutions of mouse mAb or scFv PP or by mixing biotinylated mAb (at an optimal amount giving absorbance, measured at 450 nm of 1.0) with two fold dilutions of scFv PP. […] Binding of biotinylated scFv antibodies and biotinylated mAb to target cells was measured by sequential incubation with SA-HRP and substrate as described (Noronha et al., J Immunol 161:2968-2976, 1998). The results are expressed as percent inhibition by mAb, scFv or peptide (competitor or inhibitor) of scFv or mAb binding to HMW-MAA^+ cells. The percent inhibition was calculated using the formula: % inhibition=((OD450 in the absence of inhibitor−OD450 in the presence of inhibitor)/OD450 in the absence of inhibitor)×100.

scFv C21 [2] = experiment: ELISA of synthetic peptides immobilized on plate with scFv C21; type: binding, human; conditions: peptide immobilized by 0.25% glutaraldehyde PBS
Description: FIG. 7. Reactivity in ELISA of scFv C21 with synthetic peptides derived from those isolated by panning the phage display peptide library X15 with scFv C21. Ninety-six well plates were coated for 2 h at 37° C. with synthetic peptides P1C21 ( ? ), P2C21 (125 μM) ( ? ), and P3C21 (125 μM) ( ? ), in 0.25% glutaradehyde-PBS. Following blocking with PBS-1% BSA, wells were incubated for 2 h at room temperature with 50 μl of PP scFv C21 at and 50 μl of biotinylated mAb 9E10 (2.5 μg/ml 1% BSA-PBS). Binding of scFv antibody to ? peptides was detected by addition of SA-HRP. Results are expressed as absorbance at […]. […]
The ELISA to test the reactivity of soluble scFv antibodies with synthetic peptides and melanoma cells and of mouse immune sera with melanoma cells and with peptides was performed as described (Desai et al., Cancer Res 58:2417-2425, 1998; Desai et al., J Immunol 165:3275-3283, 2000; Matsui et al., J Immunol 139:2088-2095, 1987). Results are expressed as absorbance of optical density (O.D.) at 450 nm. The competition assay to map the antigenic determinant recognized by scFv C21 was performed by mixing biotinylated scFv C21 (0.25 μg/well) with two-fold dilutions of mouse mAb or scFv PP or by mixing biotinylated mAb (at an optimal amount giving absorbance, measured at 450 nm of 1.0) with two fold dilutions of scFv PP. […]

scFv C21 [3] = experiment: Kinetic binding studies by surface plasmon resonance (BIACORE 3000); design: species or system human; conditions: scFv C21 immobilized, 25° C., peptide 1 to 32 μM, 1:1 Langmurian model
Description: Binding experiments were performed with the surface plasmon resonance based biosensor instrument BIACORE™ 3000 (Biacore AB, Uppsala, Sweden), at 25° C. Immobilization of scFv C21 in the sensor surface was performed following the standard amine coupling procedure according to the manufacturer's instructions. Briefly, 35 μl of a solution containing 0.2 M N-ethyl-N′-(dimethylaminopropyl) carbodiimide (EDC) and 0.05M N-hydroxysuccinimide (NHS), were injected at a flow rate of 5 μl/min to activate carboxyl groups on the sensor chip surface. scFv C21 ([…] of 10 mM NaOAc buffer, pH 5.0) was flowed over the chip surface at a flow rate of 20 μl/min until the desired bound protein level was reached. Unreacted scFv C21 was washed out and unreacted activated groups were blocked by the injection of 35 μl of 1 M ethanolamine at 5 μl/min. The final immobilization response of scFv C21 was 3,000 RU. A reference surface was generated simultaneously under the same conditions but without scFv C21 injection and used as a blank to correct for instrument and buffer artifacts. Peptides were injected at variable concentrations at different flow rates from 20-100 μl/min. Peptides binding to scFv C21 immobilized on the chip was monitored in real time.
To exclude that binding constants obtained from SPR were not affected by either rebinding of the analyte or mass transport effects, studies were repeated at different flow rates (20-100 μl/min). Kinetic constants obtained at both flow rates remained unchanged.
To evaluate binding, peptides P1C21 and P3C21 were injected at concentrations ranging from 1 to 32 μM. The resulting sensograms were used for estimation of the kinetic constants (kon and koff) by global fitting to the 1:1 Langmurian interaction model. The binding constant (Kd) was calculated for each peptide as a koff/kon ratio.

HMW-MAA^+ cells Colo38 = experiment: Delayed-type hypersensitivity (DTH) reaction in immunized mice; type: in vivo, BALB/c mice; conditions: mice immunized six times, cells injected day 132
Description: FIG. 12. DTH reaction to HMW-MAA^+ melanoma cells Colo38 in BALB/c mice immunized with peptide P1C21. Irradiated (20K rads) HMW-MAA^+ cells Colo38 (5×10^5 cells/mouse) ( ? ) and HMW-MAA^− LG2 cells (5×10^5 cells/mouse) (□) were injected on day 132 into the right and left hind footpad, respectively, of BALB/c mice, which had been immunized six times with peptide P1C21 on days 0, 21, 42, 63, 84 and 105. Amount of swelling induced by the injected cells was measured and calculated by subtracting the thickness of the footpad measured at time 0 h from that measured 24 h after the injection of cells. Mice immunized with control peptide MB1194-208 using the same schedule were injected at the same time point with either Colo38 or LG2 cells, and used as controls. *p<0.05.
Mice which had been immunized six times with peptide P1C21 or control peptide were injected on day 132 s.c. into the right and left hind footpads with irradiated HMW-MAA^+ cells Colo38 (5×10^5 cells/injection/) and HMW-MAA^− cells LG2 (5×10^5 cells/injection/), respectively. The thickness of each footpad was measured and calculated at the indicated times as previously described (Luo et al., J Immunol 174:7104-7110, 2005, herein incorporated by reference).

[4] = system: HMW-MAA^+ melanoma cells Colo38; experiment: Immunization of BALB/c mice with peptide-KLH conjugate, HMW-MAA-specific antibodies in sera; type: in vivo; conditions: control peptide immunization
Description: FIG. 9. Development of antibodies with selective reactivity with HMW-MAA^+ cells Colo38 in BALB/c mice immunized with peptide P1C21 and boosted with Colo 38 cells. Mice were immunized with KLH-conjugated peptide P1C21 ( ? ) (50 μg/injection) on day 0, 21, 42, 63, 84 and 105, and with HMW-MAA^+ Colo38 melanoma cells (5×10^5 cells/injection) on day 132. Sera were harvested one week before the first immunization, and one week after each immunization. Two-fold dilutions of sera (100 μl/well) were incubated with HMW-MAA^+ Colo38 melanoma cells (1×10^5/well). Following an additional incubation with HRP-conjugated goat anti-mouse IgG antibodies, the reaction was developed using TMB substrate. O.D. was measured at 450 nm. Results are expressed as the mean±SD of the highest dilution of sera giving 50% of the maximal binding to HMW-MAA^+ cells. Sera from mice immunized with peptide MB1194-208 were used as controls. *p<0.05.
FIG. 10. Flow cytometry analysis of HMW-MAA^+ M14#5/HMW-MAA melanoma cells stained with antibodies elicited by peptide P1C21 and HMW-MAA^+ cells Colo38 in BALB/c mice. […] Cells were then analyzed with a FACScan™ flow cytometry. Results are expressed as fluorescence intensity (empty histogram). […]
FIG. 11. […] Antigens were eluted from the immunoadsorbent, and analyzed by SDS-PAGE in an 8% polyacrylamide gel. […]

Row | Koff (scFv C21 [3]) | Kon (scFv C21 [3]) | Substance | Inhibition of the binding of scFv C21 to HMW-MAA+ melanoma cells Colo38 (scFv C21 [1]) | Reactivity of immobilized synthetic peptide with scFv C21 in ELISA (scFv C21 [2]) | Effect of Asp to Ser replacement at position 10 on ability of P3C21 to inhibit reactivity of scFv C21 with Colo38 cells (scFv C21 [1]; compared with P3C21) | DTH response: swelling of footpad injected with Colo38 cells versus LG2 cells (HMW-MAA^+ cells Colo38) | Reactivity of immune sera with Colo38 cells [4]
1 | – | – | EARNWHDFPIHPRTL (listed as Homo sapiens) [P2C21] | did not inhibit the binding of scFv C21 | reacted specifically with scFv C21 | – | – | –
2 | 0.00307 s⁻¹ | 917 M⁻¹ s⁻¹ | RPYRYDPLGSLKSRH [P3S10] | – | – | only a slight effect | – | –
3 | 0.0655 s⁻¹ | 2170 M⁻¹ s⁻¹ | RPYRYDPLGDLKSRH [P3C21] | inhibited the binding of scFv C21 to HMW-MAA^+ cells in a dose dependent fashion | did not | – | – | –
4 | – | – | MB1194-208: irrelevant peptide derived from the sequence of the proteasome subunit MB1, used as control (AYGVMDRGYSYDLEV) | – | – | – | no swelling of the footpad was observed | displayed no reactivity with Colo38 cells
